# Source: ChEMBL document CHEMBL1129218, “Bisbenzamidine isoxazoline derivatives as factor Xa inhibitors” (Bioorg Med Chem Lett, 1997)
# pKi: −log10 of the molar value.
# How the values were obtained:
# Rattus norvegicus [1] = species on record: Rattus norvegicus; assay: Compound was tested for inhibitory dose which produced 50% inhibition of thrombus formation in a rat vena cava thrombosis model; assay type: functional
# Rattus norvegicus [2] = assay: Percent inhibition for thrombus formation after intravenous infusion at 1 mg/kg/h in a rat vena cava thrombosis model; assay type: functional
# Rattus norvegicus [3] = assay: Percent inhibition for thrombus formation after intravenous infusion at 5 mg/kg/h in a rat vena cava thrombosis model; assay type: functional
# Prothrombin = Prothrombin (Homo sapiens, UniProt P00734); assay: The compound was evaluated for inhibitory activity against Thrombin
# Serine protease 1 = Serine protease 1 (Homo sapiens, UniProt P07477); assay: The compound was evaluated for inhibitory activity against Trypsin
# Serine protease 1, sequence (P07477 whole entry): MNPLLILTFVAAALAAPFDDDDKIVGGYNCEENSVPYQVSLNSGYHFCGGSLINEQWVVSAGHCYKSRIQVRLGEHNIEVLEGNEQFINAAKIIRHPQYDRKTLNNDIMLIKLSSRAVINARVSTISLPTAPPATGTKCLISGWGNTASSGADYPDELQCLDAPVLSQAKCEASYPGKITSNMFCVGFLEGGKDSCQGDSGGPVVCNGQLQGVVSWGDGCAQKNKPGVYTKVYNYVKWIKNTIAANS
# Coagulation factor X = Coagulation factor X (Homo sapiens, UniProt P00742); assay: Inhibition of Factor Xa
# Coagulation factor X, sequence (P00742 41-179 limits assumed): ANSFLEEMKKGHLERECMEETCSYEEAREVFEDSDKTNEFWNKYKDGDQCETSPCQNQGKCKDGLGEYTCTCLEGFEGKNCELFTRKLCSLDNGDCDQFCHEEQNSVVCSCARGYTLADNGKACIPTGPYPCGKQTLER
# Coagulation factor X, sequence (P00742 235-488 limits assumed): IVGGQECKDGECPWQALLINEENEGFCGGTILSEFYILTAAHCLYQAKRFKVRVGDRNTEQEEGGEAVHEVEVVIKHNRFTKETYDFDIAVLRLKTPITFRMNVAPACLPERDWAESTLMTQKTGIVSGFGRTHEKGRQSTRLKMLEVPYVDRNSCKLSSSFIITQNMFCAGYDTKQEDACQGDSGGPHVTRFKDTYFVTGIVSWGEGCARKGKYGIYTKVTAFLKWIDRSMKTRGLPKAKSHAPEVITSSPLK
pKi (Prothrombin),pKi (Serine protease 1),pKi (Coagulation factor X),SMILES,ID50 (Rattus norvegicus [1]) [mg/kg/h],inhibition in vivo at 1 mg/kg/h (Rattus norvegicus [2]) [%],inhibition in vivo at 5 mg/kg/h (Rattus norvegicus [3]) [%]
4.80,6.32,–,COC(=O)CC1(C(=O)Nc2ccc(C(=N)N)cc2)CC(c2cccc(C(=N)N)c2)=NO1 (stereo unspecified),1.6,40,80
5.51,6.38,7.74,COC(=O)CNC(=O)CC1(C(=O)Nc2ccc(C(=N)N)cc2)CC(c2cccc(C(=N)N)c2)=NO1 (stereo unspecified),–,–,–
4.85,< 5.92,6.93,COC(=O)CC1(C(=O)Nc2cccc(C(=N)N)c2)CC(c2ccc(C(=N)N)cc2)=NO1 (stereo unspecified),–,–,–
4.93,6.64,6.10,COC(=O)CC1(C(=O)Nc2cccc(C(=N)N)c2)CC(c2cccc(C(=N)N)c2)=NO1 (stereo unspecified),–,–,–
< 4.68,< 5.92,6.84,N=C(N)c1ccc(NC(=O)C2(CC(=O)O)CC(c3cccc(C(=N)N)c3)=NO2)cc1 (stereo unspecified),–,–,–

# Second part, the compound before the results:
SMILES,pKi (Prothrombin),pKi (Serine protease 1),pKi (Coagulation factor X),ID50 (Rattus norvegicus [1]) [mg/kg/h],inhibition in vivo at 1 mg/kg/h (Rattus norvegicus [2]) [%],inhibition in vivo at 5 mg/kg/h (Rattus norvegicus [3]) [%]
N=C(N)c1ccc(NC(=O)CC2CC(c3ccc(C(=N)N)cc3)=NO2)cc1 (stereo unspecified),5.66,–,5.77,–,–,–
N=C(N)c1ccc(C2=NOC(CC(=O)Nc3cccc(C(=N)N)c3)C2)cc1 (stereo unspecified),5.66,6.29,6.06,–,–,–
N=C(N)c1ccc(/C=C2/CCCC/C(=C\c3ccc(C(=N)N)cc3)C2=O)cc1,–,–,7.89,–,–,–
N=C(N)c1ccc(NC(=O)C2CC(c3cccc(C(=N)N)c3)=NO2)cc1 (stereo unspecified),4.80,6.15,6.57,–,–,–
N=C(N)c1ccc(NC(=O)CC2CC(c3cccc(C(=N)N)c3)=NO2)cc1 (stereo unspecified),4.95,–,5.85,–,–,–
N=C(N)c1cccc(NC(=O)CC2CC(c3cccc(C(=N)N)c3)=NO2)c1 (stereo unspecified),4.95,< 5.92,5.74,–,–,–
